The target in this test is T1, HEK cells stably transfected with tetracycline inducible hNR1 and hNR2A (Homo sapiens, UniProt Q05586+Q12879).
T1 construct: expressed in transfected cells; host or cells: HEK cells, stably transfected, tetracycline/doxycycline inducible
The test can be described thus: Assay 1: Cell-Based Assay, cytosolic calcium response to positive allosteric modulators (with 30 μM glycine and 300 nM L-glutamate, EC30). The conditions noted are these: Table 2; for Max %: responses scaled relative to 100 μM L-glutamate maximal response (100%) and 0 μM L-glutamate (0%); for EC50: cytosolic calcium response, with 30 μM glycine and 300 nM L-glutamate (EC30), — = no plateau was reached. The procedure, abridged:
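Cells induced 24 h with 7.5 μg mL^−1 doxycycline plus 500 μM (+)-ketamine, loaded 60 min at 37 °C with calcium dye in Mg-free HBSS (1.8 mM Ca, probenecid, 10 μM (+)-ketamine, pH 7.15). Peak RFU over 5 min after compound addition, scaled to 100 μM L-glutamate (100%) and 0 μM (0%); four-parameter Hill fit for EC50, max % if no plateau.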

Here are results for 24 compounds from patent publication US9988400B2 (Genentech, Inc., priority 2013, dated 2018).

T1 sequence (Q12879 23-1464, other chains not shown): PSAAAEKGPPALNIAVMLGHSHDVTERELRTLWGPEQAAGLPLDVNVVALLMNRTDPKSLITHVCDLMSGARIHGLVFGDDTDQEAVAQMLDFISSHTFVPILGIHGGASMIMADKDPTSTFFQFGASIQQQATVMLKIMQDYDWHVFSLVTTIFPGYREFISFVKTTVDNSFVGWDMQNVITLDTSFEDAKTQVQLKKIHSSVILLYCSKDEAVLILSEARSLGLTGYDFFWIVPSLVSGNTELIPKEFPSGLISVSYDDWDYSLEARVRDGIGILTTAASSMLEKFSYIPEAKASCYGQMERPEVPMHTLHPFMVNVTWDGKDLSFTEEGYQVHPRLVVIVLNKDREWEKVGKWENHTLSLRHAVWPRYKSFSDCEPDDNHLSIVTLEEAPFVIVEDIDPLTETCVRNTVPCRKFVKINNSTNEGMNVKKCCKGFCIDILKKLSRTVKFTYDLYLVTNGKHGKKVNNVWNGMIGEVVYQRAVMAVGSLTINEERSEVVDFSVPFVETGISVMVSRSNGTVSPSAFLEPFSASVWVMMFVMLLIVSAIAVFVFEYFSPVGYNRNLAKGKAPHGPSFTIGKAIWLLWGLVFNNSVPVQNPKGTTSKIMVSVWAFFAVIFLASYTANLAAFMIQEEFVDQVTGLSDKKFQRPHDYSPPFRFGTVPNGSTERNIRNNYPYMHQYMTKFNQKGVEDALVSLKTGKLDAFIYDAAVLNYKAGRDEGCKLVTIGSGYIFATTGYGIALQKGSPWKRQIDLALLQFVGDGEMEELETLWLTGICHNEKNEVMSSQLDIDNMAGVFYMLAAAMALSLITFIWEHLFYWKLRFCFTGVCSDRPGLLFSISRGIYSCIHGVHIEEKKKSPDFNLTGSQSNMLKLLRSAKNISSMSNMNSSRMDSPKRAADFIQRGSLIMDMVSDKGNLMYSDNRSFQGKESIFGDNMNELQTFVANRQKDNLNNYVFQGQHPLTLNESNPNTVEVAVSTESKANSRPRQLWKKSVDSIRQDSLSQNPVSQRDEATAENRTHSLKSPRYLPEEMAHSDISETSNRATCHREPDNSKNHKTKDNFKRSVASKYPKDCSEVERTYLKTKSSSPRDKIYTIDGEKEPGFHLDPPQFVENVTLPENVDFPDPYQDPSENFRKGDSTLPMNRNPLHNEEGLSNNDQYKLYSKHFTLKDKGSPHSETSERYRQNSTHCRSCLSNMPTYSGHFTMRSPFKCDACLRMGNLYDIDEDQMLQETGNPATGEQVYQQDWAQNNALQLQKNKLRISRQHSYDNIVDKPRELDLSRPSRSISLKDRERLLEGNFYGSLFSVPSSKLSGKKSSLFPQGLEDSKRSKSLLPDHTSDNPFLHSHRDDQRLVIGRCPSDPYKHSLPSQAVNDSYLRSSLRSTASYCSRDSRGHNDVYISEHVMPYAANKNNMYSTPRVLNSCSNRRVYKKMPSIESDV

Regarding `Cc1sc2nc(Cn3ccc(C(F)(F)F)n3)cc(=O)n2c1C(C)(C)O` [Example 18.4, 3-(2-hydroxypropan-2-yl)-2-methyl-7-((3-(trifluoromethyl)-1H-pyrazol-1-yl)methyl)-5H-thiazolo[3,2-a]pyrimidin-5-one], the Max % was determined as 127%.

For the compound `Cc1sc2nc(Cn3nc(C)c4cc(F)ccc43)cc(=O)n2c1C(C)O` (stereo not drawn) [Example 18.5, 7-((5-fluoro-3-methyl-1H-indazol-1-yl)methyl)-3-(1-hydroxyethyl)-2-methyl-5H-thiazolo[3,2-a]pyrimidin-5-one], the Max % came to 40.7%.

For `Cc1sc2nc(C(C)n3nc(C(F)(F)F)cc3C3CC3)cc(=O)n2c1C1(C)CC1CO` (stereo not drawn) [Example 19.2, 7-(1-(5-cyclopropyl-3-(trifluoromethyl)-1H-pyrazol-1-yl)ethyl)-3-(2-(hydroxymethyl)-1-methylcyclopropyl)-2-methyl-5H-thiazolo[3,2-a]pyrimidin-5-one], the Max % turned out to be 64.2%.

Consider `Cc1sc2nc(Cc3cccc(C#N)c3)cc(=O)n2c1C1CC1CO` (stereo not drawn) [Example 20.1, 3-((3-(trans-2-(hydroxymethyl)cyclopropyl)-2-methyl-5-oxo-5H-thiazolo[3,2-a]pyrimidin-7-yl)methyl)benzonitrile], for which the EC50 was found to be 3.1 µM and the Max % is given as 137%.

On to `Cc1sc2nc(Cc3cccc(C#N)c3)c(F)c(=O)n2c1C1CC1CO` (stereo not drawn) [Example 20.2, 3-((6-fluoro-3-(2-(hydroxymethyl)cyclopropyl)-2-methyl-5-oxo-5H-thiazolo[3,2-a]pyrimidin-7-yl)methyl)benzonitrile], for which the EC50 came to 7.4 µM and the Max % stood at 145%.

Take `Cc1sc2nc(Cc3ccc(C(F)(F)F)cc3)cc(=O)n2c1C1CC1CO` (stereo not drawn) [Example 20.11, 3-(2-(hydroxymethyl)cyclopropyl)-2-methyl-7-(4-(trifluoromethyl)benzyl)-5H-thiazolo[3,2-a]pyrimidin-5-one]: the EC50 came to 31.2 µM and the Max % is recorded as 78.7%.

Take `CNC(=O)c1c(C)sc2nc(Cc3cccc(C#N)c3)cc(=O)n12` [Example 21.1, 7-(3-cyanobenzyl)-N,2-dimethyl-5-oxo-5H-thiazolo[3,2-a]pyrimidine-3-carboxamide]: the Max % is 96.6%.

In the case of `CNC(=O)c1c(C)sc2nc(Cc3cccc(C#N)c3F)cc(=O)n12` [Example 21.2, 7-(3-cyano-2-fluorobenzyl)-N,2-dimethyl-5-oxo-5H-thiazolo[3,2-a]pyrimidine-3-carboxamide], the EC50 was 21.6 µM and the Max % amounted to 133%.

For `CCNC(=O)c1c(C)sc2nc(Cc3cccc(Cl)c3F)cc(=O)n12` [Example 21.3, 7-(3-chloro-2-fluorobenzyl)-N-ethyl-2-methyl-5-oxo-5H-thiazolo[3,2-a]pyrimidine-3-carboxamide], the EC50 turned out to be 7.6 µM and the Max % came to 131%.

Turning to `CNC(=O)c1c(C)sc2nc(Cc3cccc(C(F)(F)F)c3F)cc(=O)n12` [Example 21.4], the EC50 amounted to 7.4 µM and the Max % came to 129%.

Regarding `CCNC(=O)c1c(C)sc2nc(Cc3cccc(C)c3F)cc(=O)n12` [Example 21.5, N-ethyl-7-(2-fluoro-3-methylbenzyl)-2-methyl-5-oxo-5H-thiazolo[3,2-a]pyrimidine-3-carboxamide], the EC50 is 18.9 µM and the Max % turned out to be 124%.

In the case of `CCNC(=O)c1c(C)sc2nc(Cc3cc(C#N)ccc3Cl)cc(=O)n12` [Example 21.6, 7-(2-chloro-5-cyanobenzyl)-N-ethyl-2-methyl-5-oxo-5H-thiazolo[3,2-a]pyrimidine-3-carboxamide], the EC50 came out at 45.3 µM and the Max % is reported as 114%.

For `CCNC(=O)c1c(C)sc2nc(Cc3cccc(C(F)(F)F)c3)cc(=O)n12` [Example 21.7, N-ethyl-2-methyl-5-oxo-7-(3-(trifluoromethyl)benzyl)-5H-thiazolo[3,2-a]pyrimidine-3-carboxamide], the Max % was found to be 100%.

Regarding `CCNC(=O)c1c(C)sc2nc(Cc3cccc(C#N)c3)cc(=O)n12` [Example 21.8, 7-(3-cyanobenzyl)-N-ethyl-2-methyl-5-oxo-5H-thiazolo[3,2-a]pyrimidine-3-carboxamide], the Max % stood at 99.3%.

In the case of `CCNC(=O)c1c(C2CC2)sc2nc(Cc3cccc(C#N)c3F)cc(=O)n12` [Example 21.9, 7-(3-cyano-2-fluorobenzyl)-2-cyclopropyl-N-ethyl-5-oxo-5H-thiazolo[3,2-a]pyrimidine-3-carboxamide], the Max % is recorded as 90.1%.

Turning to `CCNC(=O)c1c(C)sc2nc(Cc3cc(F)cc(C#N)c3)cc(=O)n12` [Example 21.10, 7-(3-cyano-5-fluorobenzyl)-N-ethyl-2-methyl-5-oxo-5H-thiazolo[3,2-a]pyrimidine-3-carboxamide], the Max % is listed as 70.3%.

On to `CCNC(=O)c1c(C)sc2nc(Cc3cccc(C#N)c3)cc(=O)n12` [Example 21.11, 7-(3-cyanobenzyl)-N-ethyl-2-methyl-5-oxo-5H-thiazolo[3,2-a]pyrimidine-3-carboxamide], for which the Max % is 47%.

For `CCNC(=O)c1c(C)sc2nc(Cc3cccc(C(F)(F)F)c3F)cc(=O)n12` [Example 21.12, N-ethyl-7-(2-fluoro-3-(trifluoromethyl)benzyl)-2-methyl-5-oxo-5H-thiazolo[3,2-a]pyrimidine-3-carboxamide], the EC50 worked out at 6.7 µM.

For `CCNC(=O)c1c(C)sc2nc(Cc3cccc(C#N)c3F)cc(=O)n12` [Example 21.13, 7-(3-cyano-2-fluorobenzyl)-N-ethyl-2-methyl-5-oxo-5H-thiazolo[3,2-a]pyrimidine-3-carboxamide], the EC50 was found to be 12.3 µM and the Max % worked out at 131%.

As for `CNC(=O)c1c(C)sc2nc(Cc3cccc(Cl)c3F)cc(=O)n12` [Example 21.14, 7-[(3-chloro-2-fluoro-phenyl)methyl]-N,2-dimethyl-5-oxo-thiazolo[3,2-a]pyrimidine-3-carboxamide], the EC50 turned out to be 11 µM and the Max % stood at 112%.

As for `CNC(=O)c1c(C)sc2nc(Cc3cccc(C(F)(F)F)c3)cc(=O)n12` [Example 21.15, N,2-dimethyl-5-oxo-7-[[3-(trifluoromethyl)phenyl]methyl]thiazolo[3,2-a]pyrimidine-3-carboxamide], the Max % was 112%.

With `CNC(=O)c1c(C)sc2nc(Cc3cccc(Cl)c3)cc(=O)n12` [Example 21.16, 7-[(3-chlorophenyl)methyl]-N,2-dimethyl-5-oxo-thiazolo[3,2-a]pyrimidine-3-carboxamide], the EC50 is 14.3 µM and the Max % is 107%.

In the case of `CNC(=O)c1c(C)sc2nc(Cc3cc(C(F)(F)F)ccc3C3CC3)cc(=O)n12` [Example 21.17, 7-[[2-cyclopropyl-5-(trifluoromethyl)phenyl]methyl]-N,2-dimethyl-5-oxo-thiazolo[3,2-a]pyrimidine-3-carboxamide], the EC50 stood at 23.7 µM and the Max % amounted to 107%.

As to `CCNC(=O)c1c(C)sc2nc(Cc3cccc(C(F)(F)F)n3)cc(=O)n12` [Example 21.18, N-ethyl-2-methyl-5-oxo-7-((6-(trifluoromethyl)pyridine-2-yl)methyl)-5H-thiazolo[3,2-a]pyrimidine-3-carboxamide], the Max % is given as 58.5%.

One may read the EC50 as the concentration at which the effect is half-maximal.
